# Measured values from patent US6737383B1, “Herbicidal oxadiazolidines” (priority 1999, dated 2004).
# What was measured:
# bedstraw = assay: Test B pre/postemergence bedstraw; format: in vivo, Galium aparine
# Method in brief: (§1)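 Test chemicals in a non-phytotoxic solvent mixture with surfactant were sprayed preemergence onto planted seeds and postemergence onto plants 2 to 18 cm tall (1- to 4-leaf stage). After twelve to sixteen days in a greenhouse, injury was visually rated against untreated controls from 0 (no effect) to 10 (complete control).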
# blackgrass = assay: Test B pre/postemergence blackgrass; format: in vivo, Alopecurus myosuroides
# Method in brief: as §1
# surinam grass = assay: Test B pre/postemergence surinam grass; format: in vivo, Brachiaria decumbens
# Method in brief: as §1
# cocklebur = assay: Test B pre/postemergence cocklebur; format: in vivo, Xanthium strumarium
# Method in brief: as §1
# corn = assay: Test B pre/postemergence corn; format: in vivo, Zea mays
# Method in brief: as §1
# crabgrass = assay: Test B pre/postemergence crabgrass; format: in vivo, Digitaria sanguinalis
# Method in brief: as §1
# morningglory = assay: Test B pre/postemergence morningglory; format: in vivo, Ipomoea hederacea
# Method in brief: as §1
# pigweed = assay: Test B pre/postemergence pigweed; format: in vivo, Amaranthus retroflexus
# Method in brief: as §1
# rape = assay: Test B pre/postemergence rape; format: in vivo, Brassica napus
# Method in brief: as §1
# sugar beet = assay: Test B pre/postemergence sugar beet; format: in vivo, Beta vulgaris
# Method in brief: as §1
# velvetleaf = assay: Test B pre/postemergence velvetleaf; format: in vivo, Abutilon theophrasti
# Method in brief: as §1
# wheat = assay: Test B pre/postemergence wheat; format: in vivo, Triticum aestivum
# Method in brief: as §1
# wild oat = assay: Test B pre/postemergence wild oat; format: in vivo, Avena fatua
# Method in brief: as §1
# purple nutsedge = assay: Test B pre/postemergence purple nutsedge; format: in vivo, Cyperus rotundus
# Method in brief: as §1
# smallflower flatsedge = assay: Test B flood test smallflower flatsedge; format: in vivo, Cyperus difformis
# Method in brief: (§2)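 Each value is a visual injury score relative to controls, with 10 meaning complete control and 0 no effect. Evaluation took place twelve to sixteen days after the 2-leaf-stage plants were treated and kept in the greenhouse.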
# duck salad = assay: Test B flood test duck salad; format: in vivo, Heteranthera limosa
# Method in brief: as §2
# [1] = Postemergence, Rate 125 g/ha, scale of 0 to 10 where 0 is no effect and 10 is complete control
# [2] = Preemergence, Rate 62 g/ha, scale 0 to 10 (0 no effect, 10 complete control)
# [3] = Preemergence, Rate 125 g/ha, 0 is no effect, 10 is complete control
# [4] = Preemergence, Rate 250 g/ha, scale 0 to 10, 0 is no effect, 10 is complete control
# [5] = Preemergence, Rate 500 g/ha, scale 0 to 10 (0 no effect, 10 complete control)
# [6] = Rate 62 g/ha, Postemergence, scale of 0 to 10 where 0 is no effect and 10 is complete control
# [7] = Rate 250 g/ha, Postemergence, scale 0 to 10, 0 is no effect, 10 is complete control
# [8] = Rate 500 g/ha, Postemergence, scale 0 to 10
# [9] = Postemergence (flood test species), Rate 125 g/ha, scale of 0 to 10 where 0 is no effect and 10 is complete control
# [10] = Rate 62 g/ha, Postemergence section, flood test species, scale of 0 to 10 where 0 is no effect and 10 is complete control
# [11] = Rate 250 g/ha, Postemergence (flood test), scale 0 to 10, 0 is no effect, 10 is complete control
# [12] = Rate 500 g/ha, listed under Postemergence (flood test species), scale 0 to 10
smiles,measurement,setting,value
COc1ccccc1Cn1c(=O)on(C(=O)N(c2ccc(F)cc2)C(C)C)c1=O [Compound 143],Bedstraw plant response rating,bedstraw; [1],6
same,Bedstraw plant response rating,bedstraw; [2],0
same,Bedstraw plant response rating (0 to 10 scale),bedstraw; [3],0
same,Bedstraw plant response rating,bedstraw; [4],0
same,Bedstraw plant response rating,bedstraw; [5],0
same,Bedstraw plant response rating,bedstraw; [6],5
same,"Plant response rating, Bedstraw",bedstraw; [7],6
same,Bedstraw plant response rating,"bedstraw; Rate 500 g/ha, Postemergence, scale 0 to 10, 0 no effect, 10 complete control",8
same,Blackgrass plant response rating,blackgrass; [1],3
same,Blackgrass plant response rating,blackgrass; [2],4
same,Blackgrass plant response rating (0 to 10 scale),blackgrass; [3],5
same,Blackgrass plant response rating,blackgrass; [4],5
same,Blackgrass plant response rating,blackgrass; [5],6
same,Blackgrass plant response rating,blackgrass; [6],3
same,"Plant response rating, Blackgrass",blackgrass; [7],5
same,Blackgrass plant response rating,blackgrass; [8],8
same,B. signalgrass plant response rating,surinam grass; [1],0
same,B. signalgrass plant response rating,surinam grass; [2],0
same,B. signalgrass plant response rating (0 to 10 scale),surinam grass; [3],0
same,B. signalgrass plant response rating,surinam grass; [4],2
same,B. signalgrass plant response rating,surinam grass; [5],5
same,B. signalgrass plant response rating,surinam grass; [6],0
same,"Plant response rating, B. signalgrass",surinam grass; [7],0
same,B. signalgrass plant response rating,"surinam grass; Rate 500 g/ha, Postemergence, scale of 0 to 10 where 0 is no effect and 10 is complete control",5
same,Cocklebur plant response rating,cocklebur; [1],3
same,Cocklebur plant response rating,cocklebur; [2],0
same,Cocklebur plant response rating (0 to 10 scale),cocklebur; [3],0
same,Cocklebur plant response rating,cocklebur; [5],0
same,Cocklebur plant response rating,cocklebur; [6],1
same,"Plant response rating, Cocklebur",cocklebur; [7],3
same,Cocklebur plant response rating,cocklebur; [8],4
same,Corn plant response rating,corn; [1],0
same,Corn plant response rating,corn; [2],0
same,Corn plant response rating (0 to 10 scale),corn; [3],0
same,Corn plant response rating,corn; [4],0
same,Corn plant response rating,corn; [5],0
same,Corn plant response rating,corn; [6],0
same,"Plant response rating, Corn",corn; [7],0
same,Corn plant response rating,corn; [8],0
same,Crabgrass plant response rating,crabgrass; [1],8
same,Crabgrass plant response rating,crabgrass; [2],3
same,Crabgrass plant response rating (0 to 10 scale),crabgrass; [3],7
same,Crabgrass plant response rating,crabgrass; [4],8
same,Crabgrass plant response rating,crabgrass; [5],10
same,Crabgrass plant response rating,crabgrass; [6],1
same,"Plant response rating, Crabgrass",crabgrass; [7],8
same,Crabgrass plant response rating,crabgrass; [8],9
same,Morningglory plant response rating,morningglory; [1],6
same,Morningglory plant response rating,morningglory; [2],0
same,Morningglory plant response rating (0 to 10 scale),morningglory; [3],0
same,Morningglory plant response rating,morningglory; [4],0
same,Morningglory plant response rating,morningglory; [5],0
same,Morningglory plant response rating,morningglory; [6],3
same,"Plant response rating, Morningglory",morningglory; [7],8
same,Morningglory plant response rating,morningglory; [8],8
same,Redroot pigweed plant response rating,pigweed; [1],5
same,Redroot pigweed plant response rating (0 to 10 scale),pigweed; [3],0
same,Redroot pigweed plant response rating,pigweed; [4],4
same,Redroot pigweed plant response rating,pigweed; [5],10
same,Redroot pigweed plant response rating,pigweed; [6],3
same,"Plant response rating, Redroot pigweed",pigweed; [7],5
same,Redroot pigweed plant response rating,pigweed; [8],6
same,Rape plant response rating,rape; [1],0
same,Rape plant response rating,rape; [2],0
same,Rape plant response rating (0 to 10 scale),rape; [3],3
same,Rape plant response rating,rape; [4],4
same,Rape plant response rating,rape; [5],6
same,Rape plant response rating,rape; [6],0
same,"Plant response rating, Rape",rape; [7],0
same,Rape plant response rating,rape; [8],3
same,Sugarbeets plant response rating,sugar beet; [1],6
same,Sugarbeets plant response rating,sugar beet; [2],0
same,Sugarbeets plant response rating (0 to 10 scale),sugar beet; [3],1
same,Sugarbeets plant response rating,sugar beet; [4],3
same,Sugarbeets plant response rating,sugar beet; [5],9
same,Sugarbeets plant response rating,sugar beet; [6],1
same,"Plant response rating, Sugarbeets",sugar beet; [7],6
same,Sugarbeets plant response rating,sugar beet; [8],6
same,Velvetleaf plant response rating,velvetleaf; [1],2
same,Velvetleaf plant response rating,velvetleaf; [2],0
same,Velvetleaf plant response rating (0 to 10 scale),velvetleaf; [3],0
same,Velvetleaf plant response rating,velvetleaf; [4],0
same,Velvetleaf plant response rating,velvetleaf; [5],0
same,Velvetleaf plant response rating,velvetleaf; [6],2
same,"Plant response rating, Velvetleaf",velvetleaf; [7],2
same,Velvetleaf plant response rating,velvetleaf; [8],2
same,Wheat plant response rating,wheat; [1],0
same,Wheat plant response rating,wheat; [2],0
same,Wheat plant response rating (0 to 10 scale),wheat; [3],0
same,Wheat plant response rating,wheat; [4],0
same,Wheat plant response rating,wheat; [5],0
same,Wheat plant response rating,wheat; [6],0
same,"Plant response rating, Wheat",wheat; [7],0
same,Wheat plant response rating,wheat; [8],0
same,Wild oats plant response rating,wild oat; [1],0
same,Wild oats plant response rating,wild oat; [2],0
same,Wild oats plant response rating (0 to 10 scale),wild oat; [3],5
same,Wild oats plant response rating,wild oat; [4],5
same,Wild oats plant response rating,wild oat; [5],5
same,Wild oats plant response rating,wild oat; [6],0
same,"Plant response rating, Wild oats",wild oat; [7],0
same,Wild oats plant response rating,wild oat; [8],0
same,Nutsedge plant response rating,purple nutsedge; [1],0
same,Nutsedge plant response rating,purple nutsedge; [2],0
same,Nutsedge plant response rating (0 to 10 scale),purple nutsedge; [3],0
same,Nutsedge plant response rating,purple nutsedge; [4],0
same,Nutsedge plant response rating,purple nutsedge; [5],0
same,Nutsedge plant response rating,purple nutsedge; [6],0
same,"Plant response rating, Nutsedge",purple nutsedge; [7],0
same,Nutsedge plant response rating,purple nutsedge; [8],0
same,S. Flatsedge plant response rating,smallflower flatsedge; [9],0
same,S. Flatsedge plant response rating,smallflower flatsedge; [10],0
same,"Plant response rating, S. Flatsedge",smallflower flatsedge; [11],2
same,S. Flatsedge plant response rating,smallflower flatsedge; [12],8
same,Ducksalad plant response rating,duck salad; [9],0
same,Ducksalad plant response rating,duck salad; [10],0
same,"Plant response rating, Ducksalad",duck salad; [11],0
same,Ducksalad plant response rating,duck salad; [12],5
